Test results: paper PMC5003625 (Journal of medicinal chemistry, 2016)

Tests used:
[1] = test system: EZH2; settings: cited from earlier work; for selectivity for EZH2 over EZH1: reported inhibitors
[2] = target: EZH1 pentameric complex (EZH1:EED:SUZ12:RBBP4:AEBP2) (Homo sapiens, UniProt Q92800); assay: Methyltransferase activity assay; assay type: biochemical
[3] = target: EZH2 trimeric complex (EZH2:EED:SUZ12) (Homo sapiens, UniProt Q15910); assay: Methyltransferase activity assay; assay type: biochemical; settings: for fold loss of potency for EZH2: relative to the parent compound of the sentence (5, 24 or 53)
Chain of EZH2 trimeric complex (EZH2:EED:SUZ12) (Q15910 whole entry): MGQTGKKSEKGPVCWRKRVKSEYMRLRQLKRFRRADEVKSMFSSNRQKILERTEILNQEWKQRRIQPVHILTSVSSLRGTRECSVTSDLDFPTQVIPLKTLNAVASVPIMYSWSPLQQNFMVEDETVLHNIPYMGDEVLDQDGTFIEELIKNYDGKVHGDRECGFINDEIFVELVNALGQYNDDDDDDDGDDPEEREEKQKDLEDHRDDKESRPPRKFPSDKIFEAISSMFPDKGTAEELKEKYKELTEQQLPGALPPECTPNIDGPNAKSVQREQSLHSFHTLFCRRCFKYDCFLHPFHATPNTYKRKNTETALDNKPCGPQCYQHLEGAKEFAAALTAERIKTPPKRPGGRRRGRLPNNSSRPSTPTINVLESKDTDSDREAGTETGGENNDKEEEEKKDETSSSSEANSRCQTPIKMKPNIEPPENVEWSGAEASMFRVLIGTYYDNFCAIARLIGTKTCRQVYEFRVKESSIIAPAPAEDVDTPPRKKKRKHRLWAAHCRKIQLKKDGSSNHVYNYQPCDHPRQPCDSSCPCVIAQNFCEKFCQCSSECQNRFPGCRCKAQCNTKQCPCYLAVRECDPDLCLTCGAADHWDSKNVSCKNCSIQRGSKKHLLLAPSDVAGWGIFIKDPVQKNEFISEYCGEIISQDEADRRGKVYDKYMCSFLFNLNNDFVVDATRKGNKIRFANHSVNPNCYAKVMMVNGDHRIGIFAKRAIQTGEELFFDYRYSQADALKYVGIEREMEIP
Chain of EZH2 trimeric complex (EZH2:EED:SUZ12) (O75530 whole entry partner): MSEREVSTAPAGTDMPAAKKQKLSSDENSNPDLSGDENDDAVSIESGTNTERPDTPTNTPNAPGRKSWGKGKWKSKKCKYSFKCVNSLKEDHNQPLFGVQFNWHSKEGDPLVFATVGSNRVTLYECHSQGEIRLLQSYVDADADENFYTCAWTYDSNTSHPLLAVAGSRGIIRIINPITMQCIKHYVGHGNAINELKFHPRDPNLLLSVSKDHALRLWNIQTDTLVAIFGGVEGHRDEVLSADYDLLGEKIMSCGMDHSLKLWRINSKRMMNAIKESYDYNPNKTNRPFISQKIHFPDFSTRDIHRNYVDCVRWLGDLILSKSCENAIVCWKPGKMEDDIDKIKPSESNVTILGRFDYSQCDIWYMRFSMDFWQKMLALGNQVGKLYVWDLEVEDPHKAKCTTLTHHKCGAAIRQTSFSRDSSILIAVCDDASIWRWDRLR
Chain of EZH2 trimeric complex (EZH2:EED:SUZ12) (Q15022 whole entry partner): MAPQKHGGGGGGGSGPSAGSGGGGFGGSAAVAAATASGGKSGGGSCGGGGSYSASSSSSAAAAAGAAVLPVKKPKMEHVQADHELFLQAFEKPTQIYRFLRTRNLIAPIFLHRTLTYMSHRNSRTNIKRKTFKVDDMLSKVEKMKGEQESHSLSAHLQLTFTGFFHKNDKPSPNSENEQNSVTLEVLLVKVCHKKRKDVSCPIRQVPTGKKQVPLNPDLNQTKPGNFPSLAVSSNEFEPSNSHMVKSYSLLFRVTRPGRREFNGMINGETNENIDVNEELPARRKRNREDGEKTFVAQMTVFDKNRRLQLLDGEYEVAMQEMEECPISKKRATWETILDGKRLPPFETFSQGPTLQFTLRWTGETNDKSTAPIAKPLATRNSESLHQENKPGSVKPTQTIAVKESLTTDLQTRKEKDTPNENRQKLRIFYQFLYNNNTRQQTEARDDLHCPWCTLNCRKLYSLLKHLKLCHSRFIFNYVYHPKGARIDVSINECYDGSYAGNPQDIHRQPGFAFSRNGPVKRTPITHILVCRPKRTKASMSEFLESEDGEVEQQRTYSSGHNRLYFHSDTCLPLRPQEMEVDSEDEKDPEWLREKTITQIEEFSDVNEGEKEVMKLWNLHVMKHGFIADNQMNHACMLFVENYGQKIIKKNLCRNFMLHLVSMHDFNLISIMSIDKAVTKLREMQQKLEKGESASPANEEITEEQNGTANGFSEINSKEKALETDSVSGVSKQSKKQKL

Chain of EZH1 pentameric complex (EZH1:EED:SUZ12:RBBP4:AEBP2) (Q92800 whole entry): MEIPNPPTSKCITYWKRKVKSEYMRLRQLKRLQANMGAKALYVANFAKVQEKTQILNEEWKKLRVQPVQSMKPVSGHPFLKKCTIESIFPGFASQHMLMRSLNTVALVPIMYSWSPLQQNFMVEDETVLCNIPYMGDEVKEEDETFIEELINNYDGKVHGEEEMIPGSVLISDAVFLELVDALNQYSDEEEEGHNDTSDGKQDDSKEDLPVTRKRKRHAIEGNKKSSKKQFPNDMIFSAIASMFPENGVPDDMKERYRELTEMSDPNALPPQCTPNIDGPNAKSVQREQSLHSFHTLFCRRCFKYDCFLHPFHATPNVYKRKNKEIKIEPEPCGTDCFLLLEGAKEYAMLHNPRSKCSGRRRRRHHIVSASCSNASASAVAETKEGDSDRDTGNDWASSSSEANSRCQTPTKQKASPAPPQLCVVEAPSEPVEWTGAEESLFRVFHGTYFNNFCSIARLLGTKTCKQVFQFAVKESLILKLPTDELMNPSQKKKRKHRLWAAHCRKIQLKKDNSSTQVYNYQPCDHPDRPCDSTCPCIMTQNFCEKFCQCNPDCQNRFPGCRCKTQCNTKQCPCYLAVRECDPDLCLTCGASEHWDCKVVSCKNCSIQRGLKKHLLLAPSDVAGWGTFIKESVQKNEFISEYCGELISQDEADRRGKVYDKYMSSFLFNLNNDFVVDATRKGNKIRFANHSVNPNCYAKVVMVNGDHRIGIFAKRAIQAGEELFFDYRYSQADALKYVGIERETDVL
Chain of EZH1 pentameric complex (EZH1:EED:SUZ12:RBBP4:AEBP2) (O75530 whole entry partner): as the sequence (O75530 whole entry partner) above
Chain of EZH1 pentameric complex (EZH1:EED:SUZ12:RBBP4:AEBP2) (Q15022 whole entry partner): as the sequence (Q15022 whole entry partner) above
Chain of EZH1 pentameric complex (EZH1:EED:SUZ12:RBBP4:AEBP2) (Q09028 whole entry partner): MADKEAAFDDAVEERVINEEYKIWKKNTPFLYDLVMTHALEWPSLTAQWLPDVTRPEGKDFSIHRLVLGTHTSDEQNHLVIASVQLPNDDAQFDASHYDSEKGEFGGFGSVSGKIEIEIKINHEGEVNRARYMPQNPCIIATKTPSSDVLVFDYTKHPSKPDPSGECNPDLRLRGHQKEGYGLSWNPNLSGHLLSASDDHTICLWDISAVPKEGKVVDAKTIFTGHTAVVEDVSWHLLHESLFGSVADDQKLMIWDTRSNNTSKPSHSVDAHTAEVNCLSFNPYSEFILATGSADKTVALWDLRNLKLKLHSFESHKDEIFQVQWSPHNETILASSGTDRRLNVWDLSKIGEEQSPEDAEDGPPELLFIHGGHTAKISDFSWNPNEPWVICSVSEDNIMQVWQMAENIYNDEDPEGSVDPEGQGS
Chain of EZH1 pentameric complex (EZH1:EED:SUZ12:RBBP4:AEBP2) (Q6ZN18 whole entry partner): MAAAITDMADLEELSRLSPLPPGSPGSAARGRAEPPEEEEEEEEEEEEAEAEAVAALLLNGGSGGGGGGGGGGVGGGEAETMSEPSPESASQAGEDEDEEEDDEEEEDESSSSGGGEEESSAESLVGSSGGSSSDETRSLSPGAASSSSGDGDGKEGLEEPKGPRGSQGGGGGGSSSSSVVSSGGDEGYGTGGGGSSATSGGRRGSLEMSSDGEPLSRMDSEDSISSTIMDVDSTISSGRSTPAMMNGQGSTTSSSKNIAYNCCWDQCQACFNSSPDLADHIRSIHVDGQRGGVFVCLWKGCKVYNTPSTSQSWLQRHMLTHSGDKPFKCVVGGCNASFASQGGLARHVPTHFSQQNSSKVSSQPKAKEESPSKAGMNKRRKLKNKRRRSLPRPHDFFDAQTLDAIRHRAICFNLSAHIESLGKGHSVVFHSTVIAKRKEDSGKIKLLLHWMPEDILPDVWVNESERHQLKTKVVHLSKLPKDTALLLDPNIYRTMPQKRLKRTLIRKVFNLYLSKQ

SMILES	selectivity for EZH2 over EZH1 [1] [fold]	inhibitory activity against EZH1, in words [2]	inhibitory activity against EZH2, in words [3]	other results
Cc1cc(C)c(CNC(=O)c2cc(-c3ccc(CN4CCOCC4)cc3)cc3c2cnn3C2CCCC2)c(=O)[nH]1 [Compound 1, EPZ005687]	50			
CC[C@H](C)n1cc(C)c2c(C(=O)NCc3c(C)cc(C)[nH]c3=O)cc(-c3ccc(N4CCNCC4)nc3)cc21 [Compound 2, GSK126]	150			
CCCc1cc(C)[nH]c(=O)c1CNC(=O)c1cc(-c2ccnc(N3CCN(C)CC3)c2)cc2c1cnn2C(C)C [Compound 3, GSK343]	60			
CCC(CC)n1ccc2c(C(=O)NCc3c(C)cc(C)[nH]c3=O)cc(C#N)cc21 [Compound 4, EI1]	140			
CCCc1cc(C)[nH]c(=O)c1CNC(=O)c1cc(-c2ccc(N3CCN(C(C)C)CC3)nc2)cc2c1cnn2C(C)C [Compound 5, UNC1999]				IC50 ([1]; read-out: IC50 EZH2, previously reported): < 10 nM
COc1cc(C)[nH]c(=O)c1CNC(=O)c1c(C)n([C@H](C)C2CCOCC2)c2ccccc12 [Compound 8, CPI-360]	100			
CCN(c1cc(-c2ccc(N3CCN(C)CC3)nc2)cc(C(=O)NCc2c3c(c(C)[nH]c2=O)CCCC3)c1C)C1CCOCC1 [Compound 10, ZLD1039]	12			
CCCc1cc(C)[nH]c(=O)c1CNC(=O)c1cccn2c(-c3ccc(N4CCN(C(C)C)CC4)nc3)cnc12 [Compound 48, 3-(6-(4-Isopropylpiperazin-1-yl)pyridin-3-yl)-N-((6-methyl-2-oxo-4-propyl-1,2-dihydropyridin-3-yl)methyl)imidazo[1,2-a]pyridine-8-carboxamide]		did not display any inhibitory activity	did not display any inhibitory activity	
CCCc1cc(C)[nH]c(=O)c1CNC(=O)c1cnn2c(-c3ccc(N4CCN(C(C)C)CC4)nc3)cccc12 [Compound 49, 7-(6-(4-Isopropylpiperazin-1-yl)pyridin-3-yl)-N-((6-methyl-2-oxo-4-propyl-1,2-dihydropyridin-3-yl)methyl)pyrazolo[1,5-a]pyridine-3-carboxamide]		did not display any inhibitory activity	did not display any inhibitory activity	
CCCc1cc(C)[nH]c(=O)c1CNC(=O)c1cn2ccc(-c3ccc(N4CCN(C(C)C)CC4)nc3)cc2n1 [Compound 50, 7-(6-(4-Isopropylpiperazin-1-yl)pyridin-3-yl)-N-((6-methyl-2-oxo-4-propyl-1,2-dihydropyridin-3-yl)methyl)imidazo[1,2-a]pyridine-2-carboxamide]		inactive	inactive	
CCCc1cc(C)[nH]c(=O)c1CNC(=O)c1cc(-c2ccc(N3CCN(C(C)C)CC3)nc2)cc2c1cnn2C [Compound 55, 6-(6-(4-Isopropylpiperazin-1-yl)pyridin-3-yl)-1-methyl-N-((6-methyl-2-oxo-4-propyl-1,2-dihydropyridin-3-yl)methyl)-1H-inda-zole-4-carboxamide]		did not have appreciable inhibitory activity		fold loss of potency for EZH2 [3]: 10–20 fold
CCCc1cc(C)[nH]c(=O)c1CNC(=O)c1cc(-c2ccc(N3CCN(C(C)C)CC3)nc2)cc2c1cnn2C1CCCCCC1 [Compound 56, 1-Cycloheptyl-6-(6-(4-isopropylpiperazin-1-yl)pyridin-3-yl)-N-((6-methyl-2-oxo-4-propyl-1,2-dihydropyridin-3-yl)methyl)-1H-inda-zole-4-carboxamide]		did not have appreciable inhibitory activity		fold loss of potency for EZH2 [3]: 10–20 fold
CCCc1cc(C)[nH]c(=O)c1CNC(=O)c1cc(-c2ccc(N3CCN(CC)CC3)nc2)cc2c1cnn2C(C)C [Compound 64]		did not affect the potency	did not affect the potency	
CCCc1cc(C)[nH]c(=O)c1CNC(=O)c1cc(-c2ccc(N3CCNCC3)nc2)cc2c1cnn2C(C)C [Compound 65]		did not affect the potency	did not affect the potency	
